ChEMBL document CHEMBL1121781, “Potential antitumor agents. 34. Quantitative relationships between DNA binding and molecular structure for 9-anilinoacridines substituted in the anilino ring” (J Med Chem, 1981)
Calls of active or inactive are those of the source. No cut-off for these calls is given here.

Assays:
Nucleic Acid [1] = system: Nucleic Acid
Description: Association constant for binding to poly [d(A-T)]

Nucleic Acid [2] = system: Nucleic Acid; remark: listed apart in the source
Description: Association constant for binding to poly [d(G-C)]

Calf thymus DNA [3] = details: Bos taurus
Description: (§1) Inhibitory concentration against ethidium binding to DNA

Calf thymus DNA [4] = details: Bos taurus; remark: listed apart in the source
Description: as §1

Description for Mus musculus: Maximum percent increase in life span of mice
Description for physchem: Ionisation constant (pKa)

Compound	Log K (Nucleic Acid [1])	Log K (Nucleic Acid [2])	C50 (Calf thymus DNA [3])	pKa (physchem)	C50 (Calf thymus DNA [4])	ILS (Mus musculus)
Cc1ccccc1Nc1c2ccccc2nc2ccccc12	5.25	5.23	67 µM	7.76		
CC(C)(C)c1ccccc1Nc1c2ccccc2nc2ccccc12	5.23	5.09		7.62	100 µM	inactive
Oc1ccccc1Nc1c2ccccc2nc2ccccc12	5.36	5.42		7.8	39 µM	inactive
CCc1ccccc1Nc1c2ccccc2nc2ccccc12	5.18	5.15		7.68	83 µM	inactive
